{"source": "patent US5491135A", "about": "(priority 1993, dated 1996)", "key": {"HCMV strain AD 169 [1]": {"tested_on": "HCMV strain AD 169", "experiment": "Rabbit model of HCMV chorioretinitis (Example 5)", "type": "in vivo, pigmented rabbit", "method": "A total of 32 pigmented rabbits were used in this study. Animals were evaluated by slit lamp and indirect ophthalmoscopy to determine normal ocular morphology and lack of preexisting pathology. Animals were handled as follows:\n[1] On day 0, all rabbits were inoculated by mid-vitreal injection of 10^5 PFU HCMV strain AD 169 in 100 μl.\n[2] Animals were maintained in individual cages and developing chorioretinal HCMV disease was monitored daily. On day 2 PI, HCMV-inoculated animals were divided into 8 groups of 4 rabbits each with matched chorioretinal disease scores. The HCMV-infected rabbits received intravenous therapy as indicated below:\nGroup #1--4 animals, intravenous injection of high dose experimental drug (50 mg/kg) daily from day 2 through 10 PI. A total of 9 IV injections.\nGroup #3--4 animals, intravenous injection of low dose experimental drug (20 mg/kg) daily from day 2 through 10 PI. A total of 9 IV injections.\nGroup #4--4 animals, intravenous injection of high dose experimental drug (50 mg/kg) daily from day 2 through 10 PI (a total of 9 IV injections) plus high dose DHPG 10 mg/kg/day in 2 divided doses from day 2 through 10 PI (a total of 18 IV injections).\nGroup #5--4 animals, intravenous injection of high dose experimental drug (50 mg/kg) daily from day 2 through 10 PI (a total of 9 IV injections) plus low dose DHPG 5 mg/kg/day in 2 divided doses from day 2 through 10 PI (a total of 18 IV injections).\nGroup #6--4 animals, intravenous injection of low dose experimental drug (20 mg/kg) daily from day 2 through 10 PI (a total of 9 IV injections) plus low dose DHPG 5 mg/kg/day in 2 divided doses from day 2 through 10 PI (a total of 18 IV injections).\nGroup #7--4 animals, intravenous injection of DHPG 10 mg/kg/day in 2 divided doses from day 2 through day 10 PI. A total of 18 IV injections.\nGroup #8--4 animals, intravenous injection of sterile saline on days 2 through 10 PI.\n[3] All animals received daily indirect ophthalmoscopic examinations to evaluate clinical HCMV disease progression (From days 2 through 10 PI). The indirect ophthalmoscopic examinations were performed independently by two readers who were masked as to the therapy that the rabbits were receiving.\n[4] All animals were sacrificed on day 12 PI. Chorioretina and iris tissues and vitreous samples will be removed and processed for HCMV recovery by cell sonicate assay on Hs68 cell monolayers. Selected ocular and lung tissue samples were processed for histochemistry to evaluate HCMV-induced ocular pathology in treated and non-treated groups.\nThe clinical, virus recovery and histological efficacy results for all drug-treated intravenous therapy groups were correlated with each other and with the placebo therapy group."}, "HCMV strain AD169": {"tested_on": "HCMV strain AD169", "type": "cell-based"}, "clinical HCMV isolate": {"tested_on": "clinical HCMV isolate", "type": "cell-based"}, "HCMV strain AD 169 [2]": {"tested_on": "HCMV strain AD 169", "experiment": "Rabbit HCMV ascending dose efficacy and time course recovery (Example 7)", "conditions": "for Average HCMV titer / HCMV Recovered, OD / HCMV Recovered, OS / HCMV Titer, OD / HCMV Titer, OS / HCMV recovery frequency / Optic neuritis score (ONH) / Vitreo-retinal score: PALA 50 or DHPG 10 mg/kg/d; for Vitreo-retinal score: sum of both eyes"}, "[3]": {"conditions": "PALA 50 daily, DHPG 10/day, or PALA 50 + DHPG 10 or 5 mg/kg i.v."}}, "note": "“And” between values parts separate entries of the source, which are not always exact repeats. Equal entries are not always repeated. “Also recorded” adds a separate entry of the source. Where two headings read alike, the source gives them in different places.", "data": [{"smiles": "Nc1nc(O)c2ncn(COC(CO)CO)c2n1", "note": "[DHPG, reference compound]", "values": [{"measurement": "HCMV recovery day 12 PI", "setting": "HCMV strain AD 169 [1]; [3]", "value": "No HCMV was recovered"}, {"measurement": "clinical efficacy", "setting": "HCMV strain AD 169 [1]; [3]", "value": "did reduce the development of HCMV chorioretinal infection and disease; also recorded: effective in reducing the severity of HCMV-induced chorioretinal disease"}, {"measurement": "lung appearance at sacrifice", "setting": "HCMV strain AD 169 [1]; [3]", "value": "the lungs appeared normal"}, {"measurement": "vitreitis severity", "setting": "HCMV strain AD 169 [1]; [3]", "value": "moderate levels from day 4 through day 10 PI"}, {"measurement": "eyes with stabilized chorioretinal disease", "setting": "HCMV strain AD 169 [1]; by day 6-7 PI, DHPG 10 mg/kg/day", "value": 70, "unit": "%"}, {"measurement": "EC50", "setting": "HCMV strain AD169; Human betaherpesvirus 5, AD169, Hs68, AD 169, read-out: ED50 (the source's name)", "value": 19, "unit": "µg/mL"}, {"measurement": "Cell associated HCMV titer", "setting": "HCMV strain AD169; day 0 PI", "value": "10^2 PFU/ml"}, {"measurement": "Cell free (supernatant) HCMV titer", "setting": "HCMV strain AD169; day 0 PI", "value": "10^5 PFU/ml"}, {"measurement": "Cell associated HCMV titer", "setting": "HCMV strain AD169; day 1 PI", "value": "10^2 PFU/ml"}, {"measurement": "Cell free (supernatant) HCMV titer", "setting": "HCMV strain AD169; day 1 PI", "value": "10^1 PFU/ml"}, {"measurement": "Cell associated HCMV titer", "setting": "HCMV strain AD169; day 2 PI", "value": "10^1 PFU/ml"}, {"measurement": "Cell free (supernatant) HCMV titer", "setting": "HCMV strain AD169; day 2 PI", "value": "10^1 PFU/ml"}, {"measurement": "Cell associated HCMV titer", "setting": "HCMV strain AD169; day 3 PI", "value": "10^1 PFU/ml"}, {"measurement": "Cell free (supernatant) HCMV titer", "setting": "HCMV strain AD169; day 3 PI", "value": "10^1 PFU/ml"}, {"measurement": "Cell associated HCMV titer", "setting": "HCMV strain AD169; day 4 PI", "value": "10^1 PFU/ml"}, {"measurement": "Cell free (supernatant) HCMV titer", "setting": "HCMV strain AD169; day 4 PI", "value": 0, "unit": "PFU/ml"}, {"measurement": "Cell associated HCMV titer", "setting": "HCMV strain AD169; day 5 PI", "value": 0, "unit": "PFU/ml"}, {"measurement": "Cell free (supernatant) HCMV titer", "setting": "HCMV strain AD169; day 5 PI", "value": 0, "unit": "PFU/ml"}, {"measurement": "Cell associated HCMV titer", "setting": "HCMV strain AD169; day 6 PI", "value": "10^1 PFU/ml"}, {"measurement": "Cell associated HCMV titer", "setting": "HCMV strain AD169; day 7 PI", "value": 0, "unit": "PFU/ml"}, {"measurement": "reduction of HCMV titer", "setting": "clinical HCMV isolate", "value": "effective in reducing the titer"}, {"measurement": "Cell associated HCMV titer", "setting": "clinical HCMV isolate; day 0 PI", "value": "10^2 PFU/ml"}, {"measurement": "Cell free (supernatant) HCMV titer", "setting": "clinical HCMV isolate; day 0 PI", "value": "10^5 PFU/ml"}, {"measurement": "Cell associated HCMV titer", "setting": "clinical HCMV isolate; day 1 PI", "value": "10^3 PFU/ml"}, {"measurement": "Cell free (supernatant) HCMV titer", "setting": "clinical HCMV isolate; day 1 PI", "value": "10^1 PFU/ml"}, {"measurement": "Cell associated HCMV titer", "setting": "clinical HCMV isolate; day 2 PI", "value": "10^2 PFU/ml"}, {"measurement": "Cell free (supernatant) HCMV titer", "setting": "clinical HCMV isolate; day 2 PI", "value": "10^1 PFU/ml"}, {"measurement": "Cell associated HCMV titer", "setting": "clinical HCMV isolate; day 3 PI", "value": "10^1 PFU/ml"}, {"measurement": "Cell free (supernatant) HCMV titer", "setting": "clinical HCMV isolate; day 3 PI", "value": "10^1 PFU/ml"}, {"measurement": "Cell associated HCMV titer", "setting": "clinical HCMV isolate; day 4 PI", "value": "10^1 PFU/ml"}, {"measurement": "Cell free (supernatant) HCMV titer", "setting": "clinical HCMV isolate; day 4 PI", "value": "10^1 PFU/ml"}, {"measurement": "Cell associated HCMV titer", "setting": "clinical HCMV isolate; day 5 PI", "value": 0, "unit": "PFU/ml"}, {"measurement": "Cell free (supernatant) HCMV titer", "setting": "clinical HCMV isolate; day 5 PI", "value": 0, "unit": "PFU/ml"}, {"measurement": "Cell associated HCMV titer", "setting": "clinical HCMV isolate; day 6 PI", "value": "10^1 PFU/ml"}, {"measurement": "Cell associated HCMV titer", "setting": "clinical HCMV isolate; day 7 PI", "value": "10^1 PFU/ml"}, {"measurement": "clinical disease / efficacy", "setting": "HCMV strain AD 169 [2]; PALA 50 or DHPG 10 mg/kg/day i.v.", "value": "did reduce the development of HCMV-induced optic nerve disease severity; also recorded: vitreitis was only marginally affected"}, {"measurement": "Average HCMV titer", "setting": "HCMV strain AD 169 [2]; day 3", "value": "10^3 pfu"}, {"measurement": "HCMV Recovered, OD", "setting": "HCMV strain AD 169 [2]; day 3", "value": "+"}, {"measurement": "HCMV Recovered, OS", "setting": "HCMV strain AD 169 [2]; day 3", "value": "- and +"}, {"measurement": "HCMV Titer, OD", "setting": "HCMV strain AD 169 [2]; day 3", "value": "10^4 pfu"}, {"measurement": "HCMV Titer, OS", "setting": "HCMV strain AD 169 [2]; day 3", "value": "10^3 pfu"}, {"measurement": "HCMV recovery frequency", "setting": "HCMV strain AD 169 [2]; day 3", "value": "3/4"}, {"measurement": "Optic neuritis score (ONH)", "setting": "HCMV strain AD 169 [2]; day 3", "value": "5.0 and 4.0"}, {"measurement": "Vitreo-retinal score", "setting": "HCMV strain AD 169 [2]; day 3", "value": "4.75 and 5.0"}, {"measurement": "HCMV Recovered, OD", "setting": "HCMV strain AD 169 [2]; day 4", "value": "+"}, {"measurement": "HCMV Recovered, OS", "setting": "HCMV strain AD 169 [2]; day 4", "value": "-"}, {"measurement": "HCMV Titer, OD", "setting": "HCMV strain AD 169 [2]; day 4", "value": "10^2 pfu and 10^3 pfu"}, {"measurement": "HCMV recovery frequency", "setting": "HCMV strain AD 169 [2]; day 4", "value": "2/4"}, {"measurement": "Optic neuritis score (ONH)", "setting": "HCMV strain AD 169 [2]; day 4", "value": "6.0 and 5.0"}, {"measurement": "Vitreo-retinal score", "setting": "HCMV strain AD 169 [2]; day 4", "value": "3.75 and 5.75"}, {"measurement": "Average HCMV titer", "setting": "HCMV strain AD 169 [2]; day 5", "value": "10^2 pfu"}, {"measurement": "HCMV Recovered, OD", "setting": "HCMV strain AD 169 [2]; day 5", "value": "- and +"}, {"measurement": "HCMV Recovered, OS", "setting": "HCMV strain AD 169 [2]; day 5", "value": "+ and -"}, {"measurement": "HCMV Titer, OD", "setting": "HCMV strain AD 169 [2]; day 5", "value": "10^2 pfu"}, {"measurement": "HCMV Titer, OS", "setting": "HCMV strain AD 169 [2]; day 5", "value": "10^2 pfu"}, {"measurement": "HCMV recovery frequency", "setting": "HCMV strain AD 169 [2]; day 5", "value": "2/4"}, {"measurement": "Optic neuritis score (ONH)", "setting": "HCMV strain AD 169 [2]; day 5", "value": "4.0 and 5.0"}, {"measurement": "Vitreo-retinal score", "setting": "HCMV strain AD 169 [2]; day 5", "value": "4.0 and 5.0"}, {"measurement": "Average HCMV titer", "setting": "HCMV strain AD 169 [2]; day 6", "value": "10^1 pfu"}, {"measurement": "HCMV Recovered, OD", "setting": "HCMV strain AD 169 [2]; day 6", "value": "-"}, {"measurement": "HCMV Recovered, OS", "setting": "HCMV strain AD 169 [2]; day 6", "value": "- and +"}, {"measurement": "HCMV Titer, OD", "setting": "HCMV strain AD 169 [2]; day 6", "value": "10^2 pfu"}, {"measurement": "HCMV recovery frequency", "setting": "HCMV strain AD 169 [2]; day 6", "value": "1/4"}, {"measurement": "Optic neuritis score (ONH)", "setting": "HCMV strain AD 169 [2]; day 6", "value": 2.0}, {"measurement": "Optic neuritis score (ONH)", "setting": "HCMV strain AD 169 [2]; day 7", "value": 2.0}, {"measurement": "Vitreo-retinal score", "setting": "HCMV strain AD 169 [2]; day 7", "value": "3.25 and 5.5"}, {"measurement": "HCMV Recovered, OD", "setting": "HCMV strain AD 169 [2]; day 12", "value": "-"}, {"measurement": "HCMV Recovered, OS", "setting": "HCMV strain AD 169 [2]; day 12", "value": "-"}]}]}
